{"source": "patent US20240270715A1", "about": "“INHIBITORS OF TRANSGLUTAMINASES” (ZEDIRA GMBH, priority 2021, published 2024)", "key": {"[1]": {"target": "T1, recombinant human transglutaminase 2 (Homo sapiens, UniProt P21980)", "T1 sequence (P21980 1-687)": "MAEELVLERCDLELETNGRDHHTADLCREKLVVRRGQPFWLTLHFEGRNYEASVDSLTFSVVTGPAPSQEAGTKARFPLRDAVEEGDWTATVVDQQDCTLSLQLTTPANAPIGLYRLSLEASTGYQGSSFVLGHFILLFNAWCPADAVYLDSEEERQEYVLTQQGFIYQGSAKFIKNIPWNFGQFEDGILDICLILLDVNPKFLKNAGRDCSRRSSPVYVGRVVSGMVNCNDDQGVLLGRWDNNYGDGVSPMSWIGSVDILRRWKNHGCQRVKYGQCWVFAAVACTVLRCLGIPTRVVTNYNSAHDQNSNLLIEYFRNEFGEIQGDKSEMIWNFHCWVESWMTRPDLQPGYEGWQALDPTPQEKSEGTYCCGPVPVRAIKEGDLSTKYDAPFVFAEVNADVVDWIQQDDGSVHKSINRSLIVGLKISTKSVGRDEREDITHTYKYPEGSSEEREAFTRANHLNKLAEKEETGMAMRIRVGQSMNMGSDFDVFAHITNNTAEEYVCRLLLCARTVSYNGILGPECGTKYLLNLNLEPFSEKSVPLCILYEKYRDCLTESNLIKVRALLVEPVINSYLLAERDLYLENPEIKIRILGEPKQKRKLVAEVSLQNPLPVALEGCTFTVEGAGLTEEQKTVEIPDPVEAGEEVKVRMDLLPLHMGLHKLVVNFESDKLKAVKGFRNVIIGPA", "test": "Transglutaminase assay: incorporation of dansylcadaverine into dimethylcasein (DCC-assay)", "assay_type": "biochemical", "conditions": "recombinant human TG2 10 nM, dansylcadaverine/dimethylcasein; read-out: IC50 TG2", "in_short": "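Recombinant human TG2 (10 nM final) incorporates dansylcadaverine (16.7 μM) into N,N-dimethylcasein (4 μM) in Tris-HCl buffer, pH 8.0, with 10 mM CaCl2 and 10 mM glutathione. Fluorescence (λex 330, λem 500 nm) followed 30 min. The slope between 20–30 min gives activity versus DMSO control, and IC50 comes from the concentration–activity plot.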"}, "[2]": {"test": "Log D by shake flask method (octanol / PBS pH 7.4, HPLC)", "assay_type": "physicochemical", "conditions": "octanol / PBS pH 7.4, shake flask; read-out: logD", "in_short": "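Shake-flask partitioning of compound between octanol and PBS at pH 7.4, with phase concentrations quantified by HPLC. The value reported is Log D.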"}, "[3]": {"test": "Caco-2 permeability assay (CacoReady kit)", "assay_type": "in vitro ADME", "conditions": "human", "in_short": "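Apparent permeability coefficients (Papp) were measured across Caco-2 cell barriers using a ready-to-use kit run per the supplier's protocol. Values serve as a predictor of oral/intestinal bioavailability.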"}}, "note": "pIC50: −log10 of the molar value."}
{"smiles": "CCNC(=O)C(=O)CC[C@H](NC(=O)c1cncn1C)C(=O)Nc1cccn(CC(=O)NC[C@@H]2CC[C@H]3C[C@@H]2C3(C)C)c1=O", "note": "[Compound I-13, (S)-N1-(1-(2-(((1S,2R,5S)-6,6-dimethylbicyclo[3.1.1]heptan-2-yl)methylamino)-2-oxoethyl)-2-oxo-1,2-dihydropyridin-3-yl)-N6-ethyl-2-(1-methyl-1H-imidazole-5-carboxamido)-5-oxohexanediamide]", "values": [{"measurement": "pIC50", "setting": "[1]", "result": "5.46 to 6.22"}, {"measurement": "logD", "setting": "[2]", "result": "1 to 3"}, {"measurement": "Papp", "setting": "[3]", "result": "< 1", "unit": "×10⁻⁶ cm/s"}]}
{"smiles": "CCNC(=O)C(=O)CC[C@H](NC(=O)c1cncn1C)C(=O)Nc1cccn(CC(=O)NC23CC4CC(CC(Br)(C4)C2)C3)c1=O", "note": "[Compound I-10, (S)-N1-ethyl-N6-(1-(2-(3-bromoadamantane-1-amino)-2-oxoethyl)-2-oxo-1,2-dihydropyridin-3-yl)-5-(1-methyl-1H-imidazole-5-carboxamido)-2-oxohexanediamide]", "values": [{"measurement": "pIC50", "setting": "[1]", "result": "6.22 to 6.82"}, {"measurement": "logD", "setting": "[2]", "result": "< 1"}, {"measurement": "Papp", "setting": "[3]", "result": "< 1", "unit": "×10⁻⁶ cm/s"}]}
{"smiles": "CCNC(=O)C(=O)CC[C@H](NC(=O)c1nccc2cnccc12)C(=O)Nc1cccn(CC(=O)NC23CCC(C2)C3)c1=O", "note": "[Compound I-107, (S)-N1-(1-(2-(bicyclo[2.1.1]hexan-1-ylamino)-2-oxoethyl)-2-oxo-1,2-dihydropyridin-3-yl)-N6-ethyl-2-(2,6-naphthyridine-1-carboxamido)-5-oxohexanediamide]", "values": [{"measurement": "pIC50", "setting": "[1]", "result": "5.46 to 6.22"}, {"measurement": "logD", "setting": "[2]", "result": "< 1"}, {"measurement": "Papp", "setting": "[3]", "result": "< 1", "unit": "×10⁻⁶ cm/s"}]}
{"smiles": "CCNC(=O)C(=O)CC[C@H](NC(=O)c1c[nH]cn1)C(=O)Nc1cccn(CC(=O)NC23CC4CC(CC(C4)C2)C3)c1=O", "note": "[Compound I-2, (S)-N1-ethyl-5-(1H-imidazole-4-carboxamido)-N6-(1-(2-(1-adamantylamino)-2-oxoethyl)-2-oxo-1,2-dihydropyridin-3-yl)-2-oxohexanediamide]", "values": [{"measurement": "pIC50", "setting": "[1]", "result": "5.46 to 6.22"}, {"measurement": "logD", "setting": "[2]", "result": "< 1"}, {"measurement": "Papp", "setting": "[3]", "result": "< 1", "unit": "×10⁻⁶ cm/s"}]}
{"smiles": "CCNC(=O)C(=O)CC[C@H](NC(=O)c1cncn1C)C(=O)Nc1cccn(CC(=O)NC23CC4CC(CC(F)(C4)C2)C3)c1=O", "note": "[Compound I-8, (S)-N1-ethyl-N6-(1-(2-(3-fluoroadamantane-1-amino)-2-oxoethyl)-2-oxo-1,2-dihydropyridin-3-yl)-5-(1-methyl-1H-imidazole-5-carboxamido)-2-oxohexanediamide]", "values": [{"measurement": "pIC50", "setting": "[1]", "result": "6.22 to 6.82"}, {"measurement": "logD", "setting": "[2]", "result": "< 1"}, {"measurement": "Papp", "setting": "[3]", "result": "< 1", "unit": "×10⁻⁶ cm/s"}]}
{"smiles": "CCNC(=O)C(=O)CC[C@H](NC(=O)c1cncn1C)C(=O)Nc1cccn(CC(=O)NC23CC4CC(C2)CC(C(=O)OC)(C4)C3)c1=O", "note": "[Compound I-11, (S)-N1-ethyl-N6-(1-(2-(3-methyladamantane-3-carboxylate-1-amino)-2-oxoethyl)-2-oxo-1,2-dihydropyridin-3-yl)-5-(1-methyl-1H-imidazole-5-carboxamido)-2-oxohexanediamide]", "values": [{"measurement": "pIC50", "setting": "[1]", "result": "6.22 to 6.82"}, {"measurement": "logD", "setting": "[2]", "result": "< 1"}, {"measurement": "Papp", "setting": "[3]", "result": "< 1", "unit": "×10⁻⁶ cm/s"}]}
{"smiles": "CCNC(=O)C(=O)CC[C@H](NC(=O)[C@H]1COCCN1)C(=O)Nc1cccn(CC(=O)NC2C3CC4CC2CC(C)(C4)C3)c1=O", "note": "(stereo partly drawn) [Compound I-62, (S)-N1-ethyl-N6-(1-(2-(5-methyladamantane-2-amino)-2-oxoethyl)-2-oxo-1,2-dihydropyridin-3-yl)-5-((R)-morpholine-3-carboxamido)-2-oxohexanediamide]", "values": [{"measurement": "pIC50", "setting": "[1]", "result": "6.22 to 6.82"}, {"measurement": "logD", "setting": "[2]", "result": "1 to 3"}, {"measurement": "Papp", "setting": "[3]", "result": "< 1", "unit": "×10⁻⁶ cm/s"}]}
{"smiles": "CCNC(=O)C(=O)CC[C@H](NC(=O)c1cc(Br)c(Cl)s1)C(=O)Nc1cccn(CC(=O)NC2C3CC4CC(C3)CC2C4)c1=O", "note": "(stereo partly drawn) [Compound I-52, (S)-2-(4-bromo-5-chlorothiophene-2-carboxamido)-N6-ethyl-N1-(1-(2-(2-adamantylamino)-2-oxoethyl)-2-oxo-1,2-dihydropyridin-3-yl)-5-oxohexanediamide]", "values": [{"measurement": "pIC50", "setting": "[1]", "result": "> 6.82"}, {"measurement": "logD", "setting": "[2]", "result": "3 to 5"}, {"measurement": "Papp", "setting": "[3]", "result": "1 to 10", "unit": "×10⁻⁶ cm/s"}]}
